Assay results from ChEMBL document CHEMBL1201862, “PubChem BioAssay data set” (2004).
Active and inactive are the calls of the source.

Tests used:
A-375 [1] = assay: A375 melanoma cell viability reduction, dose response, counter-screen for MITF modulator project, cherry-pick samples, set 2 (AID 540335); assay type: functional, cell-based; settings: Homo sapiens
A-375 [2] = assay: MITF: Counter assay: A375 proliferation Measured in Cell-Based System Using Plate Reader - 2084-03_Inhibitor_Dose_DryPowder_Activity. [Related pubchem assays (depositor defined):AID488944]; assay type: functional; settings: Homo sapiens
[3] = biological target: T1, Mannose-6-phosphate isomerase (Homo sapiens, UniProt P34949); assay: human PMI inhibitors, high substrate, primary screen, biochemical, fluorescence intensity, high mannose 6-phosphate (AID 1220)
T1 sequence (P34949 whole entry): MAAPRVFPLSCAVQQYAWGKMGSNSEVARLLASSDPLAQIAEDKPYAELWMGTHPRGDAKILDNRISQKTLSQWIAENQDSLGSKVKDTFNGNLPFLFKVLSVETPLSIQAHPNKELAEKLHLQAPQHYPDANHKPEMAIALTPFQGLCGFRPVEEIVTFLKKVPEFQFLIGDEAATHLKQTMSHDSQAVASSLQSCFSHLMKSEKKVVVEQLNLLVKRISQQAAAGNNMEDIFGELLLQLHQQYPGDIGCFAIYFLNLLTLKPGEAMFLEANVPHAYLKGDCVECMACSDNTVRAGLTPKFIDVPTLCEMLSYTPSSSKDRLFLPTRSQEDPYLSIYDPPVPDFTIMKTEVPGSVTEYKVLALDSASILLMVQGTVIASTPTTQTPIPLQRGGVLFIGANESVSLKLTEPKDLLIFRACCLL

[4] = NIH-3T3 fibroblast cytotoxicity, dose response, cytotoxicity control, cell-based, fluorescence, Alamar Blue, secondary assay (AID 2327); assay type: functional;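 also: NIH-3T3 mouse fibroblasts cultured with fluconazole at 8 µg/mL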
[5] = biological target: Heat shock protein HSP 90-alpha (Homo sapiens, UniProt P07900); assay type: functional, organism-based
[6] = C. albicans growth with fluconazole, confirmation, fluorescence, retest (AID 2467); assay type: functional, cell-based
Melanocortin receptor 4 = Melanocortin receptor 4 (Homo sapiens, UniProt P32245); assay type: functional, cell-based;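 also: Cell-based assay with luminescence read-out, confirmatory dose-response testing for agonist activity of biased ligands at MC4R; human U2OS cells with tagged receptor and beta-arrestin; potency of agonists that increase receptor coupling to beta-arrestin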
[7] = biological target: Hepatocyte nuclear factor 4-alpha (Homo sapiens, UniProt P41235); assay type: functional, cell-based;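 also: biochemical luminescence-based dose-response counterscreen measuring inhibition of HNF4 dimerization, run alongside a screen for blockers of ABHD5–perilipin-5 interaction; split luciferase complementation of HNF4 fusion proteins in cell lysate measuring dimerization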
Genome polyprotein = Genome polyprotein (dengue virus type 2, UniProt P29990); assay: Dengue-2 NS5 methyltransferase inhibitors, primary screen, biochemical, confirmation dose response (AID 588689); assay type: functional
[8] = biological target: T2, Serine/threonine-protein phosphatase (Candida dubliniensis (strain CD36 / CBS 7987 / NCPF 3949 / NRRLY-17841) (Yeast), UniProt B9W6M3); assay: Fluorescence Cell-Based Secondary Assay to Identify Inhibitors of Calcineurin. [Related pubchem assays (depositor defined):AID1979, AID2007]; assay type: functional
T2 sequence (B9W6M3 whole entry): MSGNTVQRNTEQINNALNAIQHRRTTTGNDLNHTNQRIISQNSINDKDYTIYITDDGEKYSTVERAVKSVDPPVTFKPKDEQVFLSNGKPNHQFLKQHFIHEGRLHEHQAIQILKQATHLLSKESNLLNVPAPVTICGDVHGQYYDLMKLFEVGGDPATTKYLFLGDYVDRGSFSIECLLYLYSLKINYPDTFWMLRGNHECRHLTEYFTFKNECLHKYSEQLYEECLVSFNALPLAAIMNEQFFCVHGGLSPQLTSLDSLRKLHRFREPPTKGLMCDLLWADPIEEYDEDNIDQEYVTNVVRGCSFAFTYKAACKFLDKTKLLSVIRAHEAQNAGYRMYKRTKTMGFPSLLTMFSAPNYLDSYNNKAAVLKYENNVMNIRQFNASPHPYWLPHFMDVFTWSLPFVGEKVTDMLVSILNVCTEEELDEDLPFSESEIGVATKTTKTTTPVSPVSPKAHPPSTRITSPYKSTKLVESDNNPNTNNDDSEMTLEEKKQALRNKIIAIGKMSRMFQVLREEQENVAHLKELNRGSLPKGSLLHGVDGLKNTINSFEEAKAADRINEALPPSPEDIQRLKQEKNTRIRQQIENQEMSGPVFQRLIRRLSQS

[9] = biological target: ATP-dependent molecular chaperone HSP82 (Candida albicans (strain WO-1) (Yeast), UniProt C4YTQ8); assay: loss of DOC-induced GRE-beta-galactosidase reporter signal, dose response, Hsp90 inhibitor project, S. cerevisiae, luminescence (AID 2400); assay type: functional, cell-based;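 also: beta-galactosidase luminescence from glucocorticoid response element reporter as proxy for Hsp90 function; inhibitor potency where signal loss means Hsp90 inhibition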
[10] = biological target: T2, Serine/threonine-protein phosphatase; assay: calcineurin pathway inhibitors in yeast reporter, dose response, S. cerevisiae, CDRE-lacZ, luminescence, secondary (AID 2388); assay type: functional, cell-based;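 also: yeast reporter cells carrying a calcineurin-responsive lacZ construct stimulated with calcium chloride; luminescent beta-galactosidase reporter signal in whole cells rather than isolated phosphatase activity; potency for inhibition where a drop in reporter signal means calcineurin blockade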
[11] = biological target: 5-hydroxytryptamine receptor 5A (Homo sapiens, UniProt P47898); assay: Counterscreen for agonists of OPRM1-OPRD1 heterodimerization: luminescence-based cell-based high throughput dose response assay to identify agonists of 5-hydroxytryptamine (serotonin) 5A receptor (HTR5A). [Related pubchem assays (depositor defined):AID504326, AID504355, AID504692, AID504904, AID504905]; assay type: functional
Mu-type opioid receptor = Mu-type opioid receptor (Homo sapiens, UniProt P35372); assay: (§1) Counterscreen for agonists of heterodimerization of the mu 1 (OPRM1) and delta 1 (OPRD1) opioid receptors: Luminescence-based cell-based high throughput dose response assay to identify agonists of OPRM1 homodimerization.; assay type: functional
[12] = biological target: Delta-type opioid receptor (Homo sapiens, UniProt P41143); assay: as §1, with “of OPRD1” for “of OPRM1”, “homodimerization. [Related pubchem assays (depositor defined):AID504326, AID504355, AID504692, AID504904, AID504905]” for “homodimerization.”; assay type: functional
Beta-galactosidase = Beta-galactosidase (Escherichia coli, UniProt Q8VNN2); assay: PubChem AID 485352; assay type: functional
H9c2 = assay: cells; assay type: functional, cell-based; settings: Rattus norvegicus, H9c2, Myocardium;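 also: confirmatory concentration-response retest of ultra-high-throughput screening hits for modulation of myocardial damage; cell death induced by hydrogen peroxide oxidative stress; compound pretreatment for 60 min then peroxide exposure for 2 h; potency is for protecting the cells against peroxide damage rather than for killing them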
INS1 = assay: beta cell apoptosis inhibitors, cytokine rescue, dose response, luminescence, retest (AID 449756); assay type: functional, cell-based; settings: Rattus norvegicus;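 also: cell death triggered by IL-1 beta plus TNF-alpha plus IFN-gamma mixture; protective hits raise ATP signal compared with cytokine alone wells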
[13] = biological target: T3, Type-1 angiotensin II receptor (Homo sapiens, UniProt P30556); assay: AT1 receptor antagonists, dose response, selectivity assay for APJ receptor antagonist project, cell-based, uHTS hits (AID 463214); assay type: functional;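 also: antagonist potency against angiotensin II stimulated AT1 response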
T3 sequence (P30556 whole entry): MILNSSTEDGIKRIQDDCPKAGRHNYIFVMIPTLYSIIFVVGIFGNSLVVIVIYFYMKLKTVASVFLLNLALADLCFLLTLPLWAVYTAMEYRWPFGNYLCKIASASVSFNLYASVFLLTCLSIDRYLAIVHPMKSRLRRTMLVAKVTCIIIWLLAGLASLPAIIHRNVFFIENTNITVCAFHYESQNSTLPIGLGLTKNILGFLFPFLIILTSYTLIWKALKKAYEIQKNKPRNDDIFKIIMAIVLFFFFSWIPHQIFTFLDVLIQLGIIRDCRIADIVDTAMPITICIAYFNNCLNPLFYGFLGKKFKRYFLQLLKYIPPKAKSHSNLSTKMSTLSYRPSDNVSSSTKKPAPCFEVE

[14] = Luminescence Cell-Based Dose Retest to Confirm Inhibitors of Cancer Stem Cells. [Related pubchem assays (depositor defined):AID2717, AID2721]; assay type: functional; settings: Homo sapiens
[15] = biological target: Glucose-6-phosphate 1-dehydrogenase (Homo sapiens, UniProt P11413); assay: human G6PD enzyme inhibitors, dose response, selectivity assay for P. falciparum G6PD inhibitor project, biochemical, fluorescence (AID 504792); assay type: functional
[16] = biological target: T4, Calpain-2 catalytic subunit (Sus scrofa, UniProt P43367); assay: pig calpain II inhibitor potency, dose response, biochemical, fluorogenic peptide substrate (AID 1420); assay type: functional
T4 sequence (P43367 whole entry): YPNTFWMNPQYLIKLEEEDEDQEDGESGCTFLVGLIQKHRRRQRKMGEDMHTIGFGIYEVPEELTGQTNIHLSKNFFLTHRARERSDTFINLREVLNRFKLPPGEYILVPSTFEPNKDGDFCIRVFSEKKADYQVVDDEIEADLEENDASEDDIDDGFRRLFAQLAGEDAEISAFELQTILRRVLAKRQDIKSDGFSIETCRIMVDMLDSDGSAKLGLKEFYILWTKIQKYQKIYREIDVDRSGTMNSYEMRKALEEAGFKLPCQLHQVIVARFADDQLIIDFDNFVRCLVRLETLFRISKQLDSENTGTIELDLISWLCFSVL

Chain of Beta-galactosidase (Q8VNN2 whole entry): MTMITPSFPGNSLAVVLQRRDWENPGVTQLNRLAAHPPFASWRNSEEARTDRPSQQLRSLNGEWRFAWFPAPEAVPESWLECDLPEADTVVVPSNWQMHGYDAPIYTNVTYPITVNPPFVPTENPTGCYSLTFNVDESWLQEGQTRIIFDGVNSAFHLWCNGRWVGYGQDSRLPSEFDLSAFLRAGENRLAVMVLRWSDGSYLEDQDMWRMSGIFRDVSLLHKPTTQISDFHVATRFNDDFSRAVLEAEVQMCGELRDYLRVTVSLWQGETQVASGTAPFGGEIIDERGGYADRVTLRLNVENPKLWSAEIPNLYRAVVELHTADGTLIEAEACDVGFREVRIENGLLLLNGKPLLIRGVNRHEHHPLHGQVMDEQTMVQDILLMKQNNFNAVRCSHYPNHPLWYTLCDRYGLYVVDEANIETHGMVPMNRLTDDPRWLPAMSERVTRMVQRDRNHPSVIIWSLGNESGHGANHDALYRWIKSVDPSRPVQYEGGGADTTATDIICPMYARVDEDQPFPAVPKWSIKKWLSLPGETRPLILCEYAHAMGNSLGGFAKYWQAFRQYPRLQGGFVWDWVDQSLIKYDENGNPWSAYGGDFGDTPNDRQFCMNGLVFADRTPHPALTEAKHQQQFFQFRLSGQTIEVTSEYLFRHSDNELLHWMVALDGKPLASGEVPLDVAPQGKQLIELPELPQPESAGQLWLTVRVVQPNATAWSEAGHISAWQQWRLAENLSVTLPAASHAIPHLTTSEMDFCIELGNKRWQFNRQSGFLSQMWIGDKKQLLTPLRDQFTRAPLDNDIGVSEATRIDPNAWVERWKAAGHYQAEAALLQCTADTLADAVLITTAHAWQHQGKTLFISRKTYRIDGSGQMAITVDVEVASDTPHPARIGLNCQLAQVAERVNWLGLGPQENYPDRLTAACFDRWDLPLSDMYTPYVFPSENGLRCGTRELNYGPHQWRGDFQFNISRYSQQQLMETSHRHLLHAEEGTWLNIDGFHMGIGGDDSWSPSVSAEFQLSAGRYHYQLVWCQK
Chain of Hepatocyte nuclear factor 4-alpha (P41235 whole entry, the tested form may be a part): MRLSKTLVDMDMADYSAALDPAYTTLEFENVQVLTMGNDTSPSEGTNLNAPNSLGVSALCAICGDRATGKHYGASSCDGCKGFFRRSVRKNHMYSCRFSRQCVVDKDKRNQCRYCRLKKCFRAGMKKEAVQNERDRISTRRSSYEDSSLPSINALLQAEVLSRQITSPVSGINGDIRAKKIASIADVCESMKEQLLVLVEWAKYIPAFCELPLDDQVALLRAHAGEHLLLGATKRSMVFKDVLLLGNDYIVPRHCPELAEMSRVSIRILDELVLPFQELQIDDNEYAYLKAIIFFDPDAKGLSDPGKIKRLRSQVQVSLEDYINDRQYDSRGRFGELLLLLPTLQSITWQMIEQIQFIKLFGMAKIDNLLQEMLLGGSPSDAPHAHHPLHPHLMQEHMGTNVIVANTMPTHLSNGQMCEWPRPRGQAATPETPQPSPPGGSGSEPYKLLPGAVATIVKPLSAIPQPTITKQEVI
Chain of Genome polyprotein (P29990 2492-3391 limits assumed): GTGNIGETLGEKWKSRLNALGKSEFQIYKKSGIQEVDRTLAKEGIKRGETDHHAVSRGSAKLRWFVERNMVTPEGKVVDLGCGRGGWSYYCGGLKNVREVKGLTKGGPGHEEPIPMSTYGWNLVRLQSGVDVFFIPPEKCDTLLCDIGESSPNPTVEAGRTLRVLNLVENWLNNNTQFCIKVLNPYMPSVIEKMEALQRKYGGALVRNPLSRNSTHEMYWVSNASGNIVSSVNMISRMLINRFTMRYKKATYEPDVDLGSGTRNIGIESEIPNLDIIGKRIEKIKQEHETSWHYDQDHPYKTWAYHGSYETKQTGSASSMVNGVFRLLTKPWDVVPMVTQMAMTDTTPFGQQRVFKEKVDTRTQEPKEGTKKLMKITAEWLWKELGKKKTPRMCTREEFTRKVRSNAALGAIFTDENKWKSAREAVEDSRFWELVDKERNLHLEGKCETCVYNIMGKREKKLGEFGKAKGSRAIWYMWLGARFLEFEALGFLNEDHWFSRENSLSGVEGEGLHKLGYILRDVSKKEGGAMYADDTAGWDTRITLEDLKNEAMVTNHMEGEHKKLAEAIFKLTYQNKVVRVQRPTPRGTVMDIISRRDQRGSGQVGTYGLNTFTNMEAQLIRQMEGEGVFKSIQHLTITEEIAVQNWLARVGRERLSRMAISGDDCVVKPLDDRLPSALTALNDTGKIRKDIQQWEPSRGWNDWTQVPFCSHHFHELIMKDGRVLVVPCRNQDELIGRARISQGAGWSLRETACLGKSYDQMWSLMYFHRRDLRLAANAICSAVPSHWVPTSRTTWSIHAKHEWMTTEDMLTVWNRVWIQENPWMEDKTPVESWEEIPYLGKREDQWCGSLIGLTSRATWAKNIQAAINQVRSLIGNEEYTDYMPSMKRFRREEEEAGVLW
Chain of 5-hydroxytryptamine receptor 5A (P47898 whole entry): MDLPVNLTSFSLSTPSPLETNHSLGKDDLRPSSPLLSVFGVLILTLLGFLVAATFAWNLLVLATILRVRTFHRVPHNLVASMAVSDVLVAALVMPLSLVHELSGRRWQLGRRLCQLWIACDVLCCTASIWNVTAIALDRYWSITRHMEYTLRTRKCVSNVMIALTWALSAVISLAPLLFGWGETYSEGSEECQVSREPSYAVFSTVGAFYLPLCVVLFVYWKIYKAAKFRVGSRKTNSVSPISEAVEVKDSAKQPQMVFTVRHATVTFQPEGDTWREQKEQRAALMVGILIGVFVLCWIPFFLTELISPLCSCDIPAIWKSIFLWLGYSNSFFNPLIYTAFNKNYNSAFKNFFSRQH
Chain of Glucose-6-phosphate 1-dehydrogenase (P11413 whole entry): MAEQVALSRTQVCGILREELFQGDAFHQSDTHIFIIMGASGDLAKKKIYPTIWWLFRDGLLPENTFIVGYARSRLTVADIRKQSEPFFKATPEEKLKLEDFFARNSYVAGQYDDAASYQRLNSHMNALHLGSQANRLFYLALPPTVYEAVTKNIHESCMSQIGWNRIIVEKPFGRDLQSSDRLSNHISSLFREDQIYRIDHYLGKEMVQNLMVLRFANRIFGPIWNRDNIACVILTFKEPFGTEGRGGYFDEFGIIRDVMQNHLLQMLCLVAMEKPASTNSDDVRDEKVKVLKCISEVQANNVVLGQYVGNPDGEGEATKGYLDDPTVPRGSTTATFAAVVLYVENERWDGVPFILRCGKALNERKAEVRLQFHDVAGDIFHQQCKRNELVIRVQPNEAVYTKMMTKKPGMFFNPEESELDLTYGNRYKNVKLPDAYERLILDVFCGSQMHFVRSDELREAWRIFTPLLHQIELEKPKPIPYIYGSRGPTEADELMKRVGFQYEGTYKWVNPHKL
Chain of Delta-type opioid receptor (P41143 whole entry): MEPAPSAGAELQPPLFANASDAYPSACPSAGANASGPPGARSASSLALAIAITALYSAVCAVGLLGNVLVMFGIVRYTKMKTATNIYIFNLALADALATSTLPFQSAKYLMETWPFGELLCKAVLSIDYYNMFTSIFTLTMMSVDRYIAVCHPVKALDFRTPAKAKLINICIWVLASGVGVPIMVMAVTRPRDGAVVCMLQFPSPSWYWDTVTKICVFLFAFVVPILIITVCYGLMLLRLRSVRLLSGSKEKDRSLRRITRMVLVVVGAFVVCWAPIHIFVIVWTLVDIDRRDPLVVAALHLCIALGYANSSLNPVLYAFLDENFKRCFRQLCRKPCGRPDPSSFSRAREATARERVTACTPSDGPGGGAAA
Chain of Melanocortin receptor 4 (P32245 whole entry, the tested form may be a part): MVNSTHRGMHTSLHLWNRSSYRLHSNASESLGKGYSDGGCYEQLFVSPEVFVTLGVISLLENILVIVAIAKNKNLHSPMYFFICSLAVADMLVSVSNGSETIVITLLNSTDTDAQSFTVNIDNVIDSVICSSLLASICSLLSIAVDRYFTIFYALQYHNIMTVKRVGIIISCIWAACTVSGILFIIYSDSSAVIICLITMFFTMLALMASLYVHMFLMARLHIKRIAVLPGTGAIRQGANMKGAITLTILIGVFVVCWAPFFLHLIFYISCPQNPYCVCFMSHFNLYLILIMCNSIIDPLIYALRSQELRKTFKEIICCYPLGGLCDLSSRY
Chain of ATP-dependent molecular chaperone HSP82 (C4YTQ8 whole entry): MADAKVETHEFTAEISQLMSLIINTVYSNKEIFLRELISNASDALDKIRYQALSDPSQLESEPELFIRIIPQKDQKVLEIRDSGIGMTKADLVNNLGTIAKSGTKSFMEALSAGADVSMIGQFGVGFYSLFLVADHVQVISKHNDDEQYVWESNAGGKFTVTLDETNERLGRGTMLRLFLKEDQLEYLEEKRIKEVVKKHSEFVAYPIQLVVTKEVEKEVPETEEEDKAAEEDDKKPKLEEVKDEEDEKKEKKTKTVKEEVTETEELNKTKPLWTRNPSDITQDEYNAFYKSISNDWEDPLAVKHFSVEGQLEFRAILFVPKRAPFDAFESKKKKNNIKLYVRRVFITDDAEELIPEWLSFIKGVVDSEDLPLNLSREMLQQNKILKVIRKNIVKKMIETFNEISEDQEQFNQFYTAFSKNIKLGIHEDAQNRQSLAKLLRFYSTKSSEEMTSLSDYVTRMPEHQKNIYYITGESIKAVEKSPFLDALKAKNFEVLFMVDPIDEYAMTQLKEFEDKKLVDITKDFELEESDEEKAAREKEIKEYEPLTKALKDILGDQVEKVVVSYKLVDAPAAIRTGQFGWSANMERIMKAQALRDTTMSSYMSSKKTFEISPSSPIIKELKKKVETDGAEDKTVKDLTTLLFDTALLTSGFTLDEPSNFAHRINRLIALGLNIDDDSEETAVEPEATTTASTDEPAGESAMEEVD

Cc1ccc2oc(=O)n(CCCOc3ccccc3)c2c1
AC50 (A-375 [1]): > 35 µM (active)
AC50 (A-375 [2]): > 35 µM (active)

Cc1ccc(C(=O)c2coc3c2C(=O)C(=O)c2ccccc2-3)cc1
IC50 [3]: > 50 µM (not active)
EC50 [4]: 27.9 µM (active)
AC50 [5]: 3.84 µM (active)
EC50 [6]: 0.983 µM (active)
EC50 (Melanocortin receptor 4): > 89.2 µM (inactive)
IC50 [7]: 3.8 µM (active)
IC50 (Genome polyprotein): 55 µM (active)
EC50 [8]: 9.27 µM (active)
EC50 [9]: 1.21 µM (active)
EC50 [10]: 3.78 µM (active)

CCOC(=O)C1(c2ccccc2)CCN(CCC(=O)Nc2ccc(F)cc2)CC1
EC50 [11]: > 92.5 µM (inactive)
EC50 (Mu-type opioid receptor): > 92.5 µM (inactive)
EC50 [12]: > 92.5 µM (inactive)

CC1(C)Cc2c(c(N3CCOCC3)nc3sc4c(NN)ncnc4c23)CS1
EC50 (Beta-galactosidase): > 40 µM (inactive)
IC50 (H9c2): 10 µM (active)
AC50 (INS1): 2.08 µM (active)
IC50 [13]: 16.8 µM (active)
AC50 [14]: 7.43 µM (active)

Cc1ccc(/C=C/C(=O)N2CCN(S(=O)(=O)c3ccc(C)c(C)c3)CC2)o1
IC50 [15]: > 80 µM (inactive)

CCN(CC)c1ccc(C(=O)NC(=S)Nc2cc(S(=O)(=O)N3CCOCC3)ccc2-n2cncn2)cc1
EC50 (Beta-galactosidase): > 40 µM (inactive)
IC50 [13]: > 40 µM (not active)
IC50 [16]: 9.89 µM (not active)
